Experimental data: patent US7288630B2, “Potassium channel KCNQ5 and sequences encoding the same” (NeuroSearch A/S, priority 1999, dated 2007)

Biological target: T1, KCNQ5 (Homo sapiens, UniProt Q9NR82)
T1 construct: A complete cDNA was assembled and cloned into the oocyte expression vector PTLN; expressed in transfected cells; host or cells: Xenopus oocytes injected with cRNA from pTLN
Experiment: Two-electrode voltage clamp of KCNQ5 homomers expressed in Xenopus oocytes
Format: cell-based
Method: KCNQ5 was expressed in Xenopus oocytes and its activity was investigated by two-electrode voltage clamping.
After linearization of the KCNQ5-containing pTLN vector with Hpal, capped cRNA was transcribed in vitro using the mMessage mMachine cRNA synthesis kit (Ambion). Usually 5-15 ng of cRNA were injected into Xenopus oocytes previously isolated by manual defolliculation and short collagenase treatment. In co-expression experiments cRNAs were injected at a 1:1 ratio. Oocytes were kept at 17° C. in modified Barth's solution (90 mM NaCl, 1 mM KCl, 0.41 mM CaCl2, 0.33 mM Ca(NO3)2, 0.82 mM MgSO4, 10 mM HEPES, 100 U penicillin—100 μg streptomycin/ml, pH 7.6).
Standard two-electrode voltage-clamp measurements were performed at room temperature 2-4 days after injection using a Turbotec 05 amplifier (npi instruments, Tamm, Germany) and pClamp 5.5 software (Axon Instruments). Currents were usually recorded in ND98 solution (see Table 2). Linopirdine (RBI, Natick, Mass.) was prepared as a 100 mM stock solution in DMSO and added to a final concentration of 200 μM to ND98.
To determine the voltage dependence of apparent open probability, oocytes were clamped for 2 seconds to values between −80 mV to +40 mV, in 10 mV steps, followed by a constant −30 mV test pulse. Tail currents extrapolated to t=0 were obtained from a mono-exponential fit, normalised to the value at 0 mV and used for the analysis of apparent popen. Data analysis used PClamp6 and Microcal Origin 5.0.

T1 sequence (Q9NR82 36-932): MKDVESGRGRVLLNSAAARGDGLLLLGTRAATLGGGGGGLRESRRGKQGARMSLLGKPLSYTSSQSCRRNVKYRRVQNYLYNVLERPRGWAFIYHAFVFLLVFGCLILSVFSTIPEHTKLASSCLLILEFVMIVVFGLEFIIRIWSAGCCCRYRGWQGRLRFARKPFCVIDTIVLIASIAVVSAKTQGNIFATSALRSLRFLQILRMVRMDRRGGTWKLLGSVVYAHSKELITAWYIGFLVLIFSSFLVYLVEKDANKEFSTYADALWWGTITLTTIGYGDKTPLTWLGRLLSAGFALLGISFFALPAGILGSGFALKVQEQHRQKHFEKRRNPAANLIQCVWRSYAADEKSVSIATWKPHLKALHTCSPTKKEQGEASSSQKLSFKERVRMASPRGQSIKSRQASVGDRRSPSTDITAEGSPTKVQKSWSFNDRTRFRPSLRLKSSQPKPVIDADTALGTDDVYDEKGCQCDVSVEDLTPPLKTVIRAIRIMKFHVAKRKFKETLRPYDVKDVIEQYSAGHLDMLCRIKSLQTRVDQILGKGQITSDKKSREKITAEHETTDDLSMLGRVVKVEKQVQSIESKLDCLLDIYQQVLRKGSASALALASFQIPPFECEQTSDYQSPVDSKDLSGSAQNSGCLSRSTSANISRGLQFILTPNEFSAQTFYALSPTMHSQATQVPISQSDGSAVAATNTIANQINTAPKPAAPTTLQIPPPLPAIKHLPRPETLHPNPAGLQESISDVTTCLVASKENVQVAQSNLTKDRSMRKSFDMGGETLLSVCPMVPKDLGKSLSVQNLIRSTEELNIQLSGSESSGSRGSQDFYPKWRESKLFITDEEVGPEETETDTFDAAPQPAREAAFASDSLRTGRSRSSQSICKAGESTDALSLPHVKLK

Question: Which IC50 (extracellular application, Xenopus oocytes, from fit curves (FIG. 5A), read-out: IC50, inhibition of KCNQ5 homomers) does the source give for `O=C1c2ccccc2C(Cc2ccncc2)(Cc2ccncc2)c2ccccc21` [XE991, 10,10-bis-(4-pyridinyl-methyl)-9-(10H)-antracenone] here?
Answer: 65 ± 4 µM

Question: With `O=C(O)c1cccnc1Nc1cccc(C(F)(F)F)c1` [Niflumic acid, niflumic acid] as the molecule, how does the “shift of voltage dependence of apparent popen towards negative potentials” value (500 μM niflumic acid (FIG. 5B)) read?
Answer: about 20 mV

Question: For `[Ba+2]` [Ba^++], which “inhibition of KCNQ5 currents” value (5 mM) is on record?
Answer: more than 80%
